Laboratory results reported in ChEMBL document CHEMBL3885881, “DrugMatrix”.

Organism: Rattus norvegicus
Assay: DrugMatrix - Regimen: Daily Repeat
Type: toxicity, organism-based, Sprague-Dawley
Set-up: regimen Daily Repeat, gender Male, age 6-8 weeks
Conditions: in vivo, po, route oral GAVAGE, vehicle 100 % WATER; for BASOPHIL / EOSINOPHIL / ERYTHROCYTE COUNT / HEMATOCRIT / HEMOGLOBIN / LEUKOCYTE COUNT / LYMPHOCYTE / MEAN CORPUSCULAR HEMOGLOBIN / MEAN CORPUSCULAR HEMOGLOBIN CONCENTRATION / MEAN CORPUSCULAR VOLUME / MONOCYTE / NEUTROPHIL / PLATELET COUNT: tissue Blood; for ALANINE AMINOTRANSFERASE / ALBUMIN / ALKALINE PHOSPHATASE / ASPARTATE AMINOTRANSFERASE / BLOOD UREA NITROGEN / CHLORIDE / CHOLESTEROL / CREATINE PHOSPHOKINASE / CREATININE / GLUCOSE / PHOSPHORUS / POTASSIUM / SODIUM / TOTAL BILIRUBIN / TOTAL PROTEIN: tissue Plasma
[1] = 0 mg/kg, 72 h, dose level Control, time 3 day
[2] = 0 mg/kg, 120 h, dose level Control, time 5 day
[3] = 8 mg/kg, 72 h, dose level Low, time 3 day
[4] = 8 mg/kg, 120 h, dose level Low, time 5 day
[5] = 29 mg/kg, 72 h, dose level High, time 3 day
[6] = 29 mg/kg, 120 h, dose level High, time 5 day

CCN[C@@H](C)Cc1cccc(C(F)(F)F)c1 [DEXFENFLURAMINE]
BASOPHIL [1]: 0% | EOSINOPHIL [1]: 0.5% | ERYTHROCYTE COUNT [1]: 5.8 x10E6/uL | HEMATOCRIT [1]: 35.07% | HEMOGLOBIN [1]: 14.12 G/DL | LEUKOCYTE COUNT [1]: 13.7 x10E3/uL | LYMPHOCYTE [1]: 82.33% | MEAN CORPUSCULAR HEMOGLOBIN [1]: 24.38 pg | MEAN CORPUSCULAR HEMOGLOBIN CONCENTRATION [1]: 40.28 G/DL | MEAN CORPUSCULAR VOLUME [1]: 60.52 fL | MONOCYTE [1]: 2.67% | NEUTROPHIL [1]: 14.5% | PLATELET COUNT [1]: 911.5 x10E3/uL | ALANINE AMINOTRANSFERASE [1]: 36.83 u/L | ALBUMIN [1]: 3.75 G/DL | ALKALINE PHOSPHATASE [1]: 399.83 u/L | ASPARTATE AMINOTRANSFERASE [1]: 66 u/L | BLOOD UREA NITROGEN [1]: 14.67 mg/dL | CHLORIDE [1]: 101.67 MEQ/L | CHOLESTEROL [1]: 66.33 mg/dL | CREATINE PHOSPHOKINASE [1]: 139.5 u/L | CREATININE [1]: 0.92 mg/dL | GLUCOSE [1]: 175 mg/dL | PHOSPHORUS [1]: 11.42 mg/dL | POTASSIUM [1]: 7.03 MEQ/L | SODIUM [1]: 148.5 MEQ/L | TOTAL BILIRUBIN [1]: 1.13 mg/dL | TOTAL PROTEIN [1]: 6.87 G/DL | BASOPHIL [2]: 0% | EOSINOPHIL [2]: 0.2% | ERYTHROCYTE COUNT [2]: 6.02 x10E6/uL | HEMATOCRIT [2]: 36.48% | HEMOGLOBIN [2]: 14.38 G/DL | LEUKOCYTE COUNT [2]: 12.34 x10E3/uL | LYMPHOCYTE [2]: 83% | MEAN CORPUSCULAR HEMOGLOBIN [2]: 23.92 pg | MEAN CORPUSCULAR HEMOGLOBIN CONCENTRATION [2]: 39.44 G/DL | MEAN CORPUSCULAR VOLUME [2]: 60.66 fL | MONOCYTE [2]: 3% | NEUTROPHIL [2]: 13.8% | PLATELET COUNT [2]: 1190.6 x10E3/uL | ALANINE AMINOTRANSFERASE [2]: 43 u/L | ALBUMIN [2]: 3.73 G/DL | ALKALINE PHOSPHATASE [2]: 393 u/L | ASPARTATE AMINOTRANSFERASE [2]: 62.33 u/L | BLOOD UREA NITROGEN [2]: 16.33 mg/dL | CHLORIDE [2]: 101.67 MEQ/L | CHOLESTEROL [2]: 65.5 mg/dL | CREATINE PHOSPHOKINASE [2]: 130.67 u/L | CREATININE [2]: 0.58 mg/dL | GLUCOSE [2]: 180.67 mg/dL | PHOSPHORUS [2]: 11.28 mg/dL | POTASSIUM [2]: 7.05 MEQ/L | SODIUM [2]: 148.17 MEQ/L | TOTAL BILIRUBIN [2]: 0.72 mg/dL | TOTAL PROTEIN [2]: 6.83 G/DL | BASOPHIL [3]: 0% | EOSINOPHIL [3]: 0% | ERYTHROCYTE COUNT [3]: 5.97 x10E6/uL | HEMATOCRIT [3]: 35.8% | HEMOGLOBIN [3]: 14.33 G/DL | LEUKOCYTE COUNT [3]: 8.6 x10E3/uL | LYMPHOCYTE [3]: 86.33% | MEAN CORPUSCULAR HEMOGLOBIN [3]: 24.03 pg | MEAN CORPUSCULAR HEMOGLOBIN CONCENTRATION [3]: 40.07 G/DL | MEAN CORPUSCULAR VOLUME [3]: 60 fL | MONOCYTE [3]: 3.67% | NEUTROPHIL [3]: 10% | PLATELET COUNT [3]: 1151 x10E3/uL | ALANINE AMINOTRANSFERASE [3]: 34.67 u/L | ALBUMIN [3]: 3.8 G/DL | ALKALINE PHOSPHATASE [3]: 406.67 u/L | ASPARTATE AMINOTRANSFERASE [3]: 62.67 u/L | BLOOD UREA NITROGEN [3]: 16 mg/dL | CHLORIDE [3]: 100.33 MEQ/L | CHOLESTEROL [3]: 70 mg/dL | CREATINE PHOSPHOKINASE [3]: 167.33 u/L | CREATININE [3]: 0.77 mg/dL | GLUCOSE [3]: 174 mg/dL | PHOSPHORUS [3]: 11.97 mg/dL | POTASSIUM [3]: 6.93 MEQ/L | SODIUM [3]: 148.67 MEQ/L | TOTAL BILIRUBIN [3]: 0.67 mg/dL | TOTAL PROTEIN [3]: 6.7 G/DL | BASOPHIL [4]: 0% | EOSINOPHIL [4]: 0% | ERYTHROCYTE COUNT [4]: 6.17 x10E6/uL | HEMATOCRIT [4]: 36.97% | HEMOGLOBIN [4]: 14.47 G/DL | LEUKOCYTE COUNT [4]: 12.77 x10E3/uL | LYMPHOCYTE [4]: 91.67% | MEAN CORPUSCULAR HEMOGLOBIN [4]: 23.5 pg | MEAN CORPUSCULAR HEMOGLOBIN CONCENTRATION [4]: 39.13 G/DL | MEAN CORPUSCULAR VOLUME [4]: 60 fL | MONOCYTE [4]: 1.67% | NEUTROPHIL [4]: 6.67% | PLATELET COUNT [4]: 1202.33 x10E3/uL | ALANINE AMINOTRANSFERASE [4]: 37 u/L | ALBUMIN [4]: 3.83 G/DL | ALKALINE PHOSPHATASE [4]: 391.67 u/L | ASPARTATE AMINOTRANSFERASE [4]: 62.67 u/L | BLOOD UREA NITROGEN [4]: 14 mg/dL | CHLORIDE [4]: 102.67 MEQ/L | CHOLESTEROL [4]: 62.67 mg/dL | CREATINE PHOSPHOKINASE [4]: 107 u/L | CREATININE [4]: 0.6 mg/dL | GLUCOSE [4]: 196.67 mg/dL | PHOSPHORUS [4]: 12.6 mg/dL | POTASSIUM [4]: 7.37 MEQ/L | SODIUM [4]: 148.67 MEQ/L | TOTAL BILIRUBIN [4]: 0.53 mg/dL | TOTAL PROTEIN [4]: 7 G/DL | BASOPHIL [5]: 0% | EOSINOPHIL [5]: 0.33% | ERYTHROCYTE COUNT [5]: 6.47 x10E6/uL | HEMATOCRIT [5]: 37.87% | HEMOGLOBIN [5]: 15.5 G/DL | LEUKOCYTE COUNT [5]: 12.63 x10E3/uL | LYMPHOCYTE [5]: 88% | MEAN CORPUSCULAR HEMOGLOBIN [5]: 24.03 pg | MEAN CORPUSCULAR HEMOGLOBIN CONCENTRATION [5]: 41 G/DL | MEAN CORPUSCULAR VOLUME [5]: 58.6 fL | MONOCYTE [5]: 2% | NEUTROPHIL [5]: 9.67% | PLATELET COUNT [5]: 1385.67 x10E3/uL | ALANINE AMINOTRANSFERASE [5]: 27 u/L | ALBUMIN [5]: 3.7 G/DL | ALKALINE PHOSPHATASE [5]: 285.67 u/L | ASPARTATE AMINOTRANSFERASE [5]: 55.33 u/L | BLOOD UREA NITROGEN [5]: 13 mg/dL | CHLORIDE [5]: 102 MEQ/L | CHOLESTEROL [5]: 63.67 mg/dL | CREATINE PHOSPHOKINASE [5]: 119.67 u/L | CREATININE [5]: 0.7 mg/dL | GLUCOSE [5]: 160 mg/dL | PHOSPHORUS [5]: 10.57 mg/dL | POTASSIUM [5]: 6.47 MEQ/L | SODIUM [5]: 151 MEQ/L | TOTAL BILIRUBIN [5]: 0.47 mg/dL | TOTAL PROTEIN [5]: 6.57 G/DL | BASOPHIL [6]: 0% | EOSINOPHIL [6]: 0% | ERYTHROCYTE COUNT [6]: 6.71 x10E6/uL | HEMATOCRIT [6]: 38.87% | HEMOGLOBIN [6]: 15.1 G/DL | LEUKOCYTE COUNT [6]: 11.3 x10E3/uL | LYMPHOCYTE [6]: 92.67% | MEAN CORPUSCULAR HEMOGLOBIN [6]: 22.53 pg | MEAN CORPUSCULAR HEMOGLOBIN CONCENTRATION [6]: 38.9 G/DL | MEAN CORPUSCULAR VOLUME [6]: 58 fL | MONOCYTE [6]: 1.67% | NEUTROPHIL [6]: 5.67% | PLATELET COUNT [6]: 1314.33 x10E3/uL | ALANINE AMINOTRANSFERASE [6]: 33.67 u/L | ALBUMIN [6]: 3.67 G/DL | ALKALINE PHOSPHATASE [6]: 333.67 u/L | ASPARTATE AMINOTRANSFERASE [6]: 57.67 u/L | BLOOD UREA NITROGEN [6]: 15 mg/dL | CHLORIDE [6]: 101 MEQ/L | CHOLESTEROL [6]: 66.67 mg/dL | CREATINE PHOSPHOKINASE [6]: 104.67 u/L | CREATININE [6]: 0.6 mg/dL | GLUCOSE [6]: 197.33 mg/dL | PHOSPHORUS [6]: 12.47 mg/dL | POTASSIUM [6]: 6.47 MEQ/L | SODIUM [6]: 149.67 MEQ/L | TOTAL BILIRUBIN [6]: 0.33 mg/dL | TOTAL PROTEIN [6]: 6.57 G/DL
